≈ marks a conversion by molar mass, not a printed value.
Legend:
[1] = target: T1, TACE (ADAM-17) (Homo sapiens, UniProt P78536); test: TACE (ADAM-17) inhibitor screening kit; format: biochemical; settings: for inhibition at 20 µM: read-out: TACE (% inhibition at 20 μM)
T1 construct: purchased Sigma-Aldrich (Saint Louis, MO)
Description: (§1) Since LpxC and LasB are zinc-dependent enzymes, we investigated potential off-target activity of the three frontrunners on mammalian zinc-dependent enzymes. Our panel comprised three representative matrix-metalloproteases (MMP1–3) and tumor necrosis factor-α converting enzyme (TACE, also known as ADAM17) (Table 6).
(§2) Purification of LasB from P. aeruginosa PA14 supernatant and the subsequent performance of the FRET-based in vitro inhibition assay was performed as described previously.[66] The TACE (ADAM-17) inhibitor screening kit was purchased from Sigma-Aldrich (Saint Louis, MO). MMPs 1–3 along with the SensoLyte 520 Generic MMP Activity Kit Fluorimetric were purchased from AnaSpec (Fremont, CA, USA). The assays were performed according to the guidelines of the respective manufacturer. Fluorescence signals were measured using a CLARIOstar plate reader (BMG Labtech, Ortenberg, Germany).

[2] = microsomal metabolic stability, human; format: in vitro ADME; settings: human liver microsomes; for half-life: read-out: microsomal metabolic stability t1/2
Description: (§3) Also, the plasma stability of the compounds in mouse plasma was generally low with half-lives between 22.9 min [(S)-13h] and 43.1 min [(S)-13j].
(§4) The microsomal metabolic stability assay as well as the plasma protein binding assay were conducted as described previously.[78]
(§5) Samples were analyzed using an Agilent 1290 Infinity II HPLC system coupled to an AB Sciex QTrap 6500plus mass spectrometer. LC conditions were as follows: column: Agilent Zorbax Eclipse Plus C18, 50 × 2.1 mm, 1.8 μm; temperature: 30 °C; injection volume: 5 μL per sample; flow rate: 700 μL min^–1. Samples were run under acidic conditions. Solvents: (A) water + 0.1% formic acid; (B) 95% acetonitrile/5% H2O + 0.1% formic acid. Gradient elution: (A %): 0–0.1 min: 99%, 0.1–3.5 min: gradient from 99 to 50%, 3.5–3.8 min: gradient from 50 to 0%, 3.8–4.7 min: gradient from 0 to 99%. Mass transitions for controls and compounds are depicted in Table S3.

[3] = plasma protein binding, human; format: in vitro ADME
Description: as §4

[4] = target: T2, MMP1 (Homo sapiens, UniProt P03956); test: MMP1 inhibition (SensoLyte 520 Generic MMP Activity Kit); format: biochemical; settings: read-out: MMP1 (% inhibition at 100 μM)
T2 construct: purchased AnaSpec (Fremont, CA, USA)
T2 sequence (P03956 100-469): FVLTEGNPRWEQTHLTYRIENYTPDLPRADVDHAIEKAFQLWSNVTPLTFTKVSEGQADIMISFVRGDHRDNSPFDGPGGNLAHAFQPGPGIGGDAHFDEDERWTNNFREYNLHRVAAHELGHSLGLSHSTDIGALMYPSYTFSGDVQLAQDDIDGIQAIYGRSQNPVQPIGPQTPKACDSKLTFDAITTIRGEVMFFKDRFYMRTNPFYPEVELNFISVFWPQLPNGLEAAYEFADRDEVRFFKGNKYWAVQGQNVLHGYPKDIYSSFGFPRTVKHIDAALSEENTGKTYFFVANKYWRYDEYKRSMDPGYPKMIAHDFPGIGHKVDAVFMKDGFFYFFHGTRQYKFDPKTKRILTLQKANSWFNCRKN
Description: as §1, §2

[5] = target: T3, MMP2 (Homo sapiens, UniProt P08253); test: MMP2 inhibition (SensoLyte 520 Generic MMP Activity Kit); format: biochemical; settings: for inhibition at 100 µM: read-out: MMP2 (% inhibition at 100 μM), 100 μM
T3 construct: purchased AnaSpec (Fremont, CA, USA)
T3 sequence (P08253 110-660): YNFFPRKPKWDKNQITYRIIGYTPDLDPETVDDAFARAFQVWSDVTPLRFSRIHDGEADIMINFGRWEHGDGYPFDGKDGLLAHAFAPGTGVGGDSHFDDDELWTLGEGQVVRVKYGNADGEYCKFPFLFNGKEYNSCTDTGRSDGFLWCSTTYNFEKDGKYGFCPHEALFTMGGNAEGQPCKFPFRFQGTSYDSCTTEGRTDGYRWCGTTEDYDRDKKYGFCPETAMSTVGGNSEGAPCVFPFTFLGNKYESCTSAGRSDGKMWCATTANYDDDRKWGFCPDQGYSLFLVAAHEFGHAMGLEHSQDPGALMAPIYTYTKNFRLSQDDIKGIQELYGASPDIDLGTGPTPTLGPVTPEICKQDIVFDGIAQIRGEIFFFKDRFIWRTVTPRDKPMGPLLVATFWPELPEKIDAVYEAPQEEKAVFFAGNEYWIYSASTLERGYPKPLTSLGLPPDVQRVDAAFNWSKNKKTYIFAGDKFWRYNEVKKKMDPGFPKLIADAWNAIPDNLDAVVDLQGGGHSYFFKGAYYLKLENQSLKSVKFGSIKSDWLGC
Description: as §1, §2

[6] = plasma protein binding, mouse; format: in vitro ADME; settings: for fraction unbound: plasma
Description: as §4

[7] = microsomal metabolic stability, mouse; format: in vitro ADME; settings: for microsomal CLint: mouse liver microsomes; for half-life: mouse, liver microsomes, read-out: microsomal metabolic stability t1/2
Description: as §3, §4, §5

[8] = log D7.4, HPLC-based method; format: physicochemical; settings: pH 7.4, HPLC-based; read-out: logD7.4
Description: Log D7.4 was analyzed using an HPLC-based method. The UV retention time of reference compounds with known log D7.4 was determined and plotted toward their log D7.4. Linear regression was used to determine the log D7.4 of unknown compounds. Analysis was performed using a Vanquish Flex HPLC system with a variable wavelength detector (Thermo Fisher, Dreieich, Germany) with the following conditions: EC150/2 NUCLEODUR C18 Pyramid column, […] (Macherey Nagel, Düren, Germany); eluent A: 50 mM NH4OAc pH 7.4, eluent B: acetonitrile, and flow: 0.6 mL/min; gradient elution: (B %): 0–2.5 min: gradient from 0 to 100%, 2.5–3.0 min: 100%, 3.0–3.2 min: gradient from 100 to 0%, 3.2–5.0 min: 0%.

[9] = target: T4, MMP3 (Homo sapiens, UniProt P08254); test: MMP3 inhibition (SensoLyte 520 Generic MMP Activity Kit); format: biochemical; settings: read-out: MMP3 (% inhibition at 100 μM)
T4 construct: purchased AnaSpec (Fremont, CA, USA)
Description: as §1, §2

[10] = kinetic turbidimetric solubility; format: physicochemical; settings: PBS with 1% DMSO, Kinetic solubility (1% DMSO/PBS)
Description: The desired compounds were sequentially diluted in DMSO in a 96-well plate. 1.5 μL from each well was transferred into another 96-well plate and mixed with 148.5 μL of PBS. Plates were shaken for 5 min at 600 rpm at room temperature, and the absorbance at 620 nm was measured. Absorbance values were normalized by blank subtraction and plotted using GraphPad Prism 8.4.2 (GraphPad Software, San Diego, CA, USA). Solubility (S) was determined based on the First X value of AUC function using a threshold of 0.005.

T4 sequence (P08254 100-477, species assumed): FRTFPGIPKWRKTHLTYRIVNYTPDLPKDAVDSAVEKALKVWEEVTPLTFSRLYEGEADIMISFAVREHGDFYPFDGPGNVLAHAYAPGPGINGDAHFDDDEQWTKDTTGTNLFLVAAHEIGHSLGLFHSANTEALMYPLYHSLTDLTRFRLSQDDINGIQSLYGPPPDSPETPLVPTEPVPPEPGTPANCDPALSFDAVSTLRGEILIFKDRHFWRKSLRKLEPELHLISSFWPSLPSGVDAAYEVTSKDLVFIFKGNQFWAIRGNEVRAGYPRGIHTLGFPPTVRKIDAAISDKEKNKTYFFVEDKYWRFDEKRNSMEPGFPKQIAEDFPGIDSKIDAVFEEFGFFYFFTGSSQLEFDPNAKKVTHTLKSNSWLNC
T1 sequence (P78536 215-824, species assumed): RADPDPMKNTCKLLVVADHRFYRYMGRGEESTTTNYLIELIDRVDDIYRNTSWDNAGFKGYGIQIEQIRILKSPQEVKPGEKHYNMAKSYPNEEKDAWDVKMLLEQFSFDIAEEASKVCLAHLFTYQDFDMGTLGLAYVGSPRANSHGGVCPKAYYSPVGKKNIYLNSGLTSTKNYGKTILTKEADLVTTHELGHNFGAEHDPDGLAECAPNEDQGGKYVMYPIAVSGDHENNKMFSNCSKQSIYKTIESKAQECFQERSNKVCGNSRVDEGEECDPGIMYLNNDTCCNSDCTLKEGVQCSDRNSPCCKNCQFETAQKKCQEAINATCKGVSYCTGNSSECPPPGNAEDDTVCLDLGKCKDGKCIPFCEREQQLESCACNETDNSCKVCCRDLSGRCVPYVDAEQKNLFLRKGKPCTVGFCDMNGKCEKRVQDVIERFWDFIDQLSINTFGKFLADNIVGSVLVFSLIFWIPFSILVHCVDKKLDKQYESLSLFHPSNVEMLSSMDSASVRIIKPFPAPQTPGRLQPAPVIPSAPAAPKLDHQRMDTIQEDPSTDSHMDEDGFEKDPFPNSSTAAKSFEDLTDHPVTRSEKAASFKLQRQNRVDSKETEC

Compound	IC50 [1] [µM]	selectivity factor for TACE ([1]; TACE versus LpxC)	inhibition at 20 µM [1] [%]	microsomal CLint [2] [µL/min/mg]	half-life [2] [h]	fraction unbound [3]	inhibition at 100 µM [4] [%]	IC50 [5] [µM]	selectivity factor for MMP2 ([5]; MMP2 versus LpxC)	inhibition at 100 µM [5] [%]	plasma protein binding mouse [6] [%]	fraction unbound [6]	microsomal CLint [7] [µL/min/mg]	half-life [7] [h]	chromatographic logD [8]	inhibition at 100 µM [9] [%]	solubility kinetic at 5 min [10] [µM]	inhibition at 100 µM ([1]; 100 μM (as printed in text)) [%]	MMP2 (% inhibition at 100 μM) ([5]; 100 μM) [%]
O=C(NC[C@H](OCc1ccc(C#Cc2ccc(CN3CCOCC3)cc2)cc1)C(=O)NO)c1cc[nH]n1 [(S)-13l]	5.4	8.4	81 ± 2	< 23	> 1	0.0224	11 ± 6	67	105	65 ± 4	79.42 ± 2.5	> 0.2	26	~0.883	2.43	19 ± 2	≥ 100	–	–
O=C(NC[C@H](OCc1ccc(C#Cc2ccc(CN3CCOCC3)cc2)cc1)C(=O)NO)c1ccc2[nH]ccc2c1 [(S)-13j]	–	–	38 ± 5	< 23	> 1	0.0205	< 10	–	–	~50	–	0.0795	< 23	> 1	3.33	16 ± 1	46 ± 11 (≈ 25.4 µg/mL)	38	47 ± 3
O=C(NC[C@H](OCc1ccc(C#Cc2ccc(CN3CCOCC3)cc2)cc1)C(=O)NO)c1c[nH]c2ccccc12 [(S)-13h]	–	–	< 10	< 23	> 1	0.0175	15 ± 7	–	–	15 ± 3	–	0.0541	< 23	> 1	3.63	< 10	53.5 ± 1.9 (≈ 29.6 µg/mL)	–	–

— publication PMC11472313, “Development of Fragment-Based Inhibitors of the Bacterial Deacetylase LpxC with Low Nanomolar Activity” (Journal of Medicinal Chemistry, 2024)
